Assay [1] has as its system human PBMCs. As to the kind of experiment: CD3/CD28 stimulated IL-2 release NECA reversal assay in human PBMCs.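 Further: dose-response as % inhibition where 100% equals no-NECA control wells with CD3/CD28.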 Format: cell-based. Conditions: PBMC, CD3/CD28 antibody stimulated, 1 uM NECA, 24 hours, IL-2 in culture supernatant. A digest of the protocol: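 PBMCs from citrated donor blood, 50,000 cells/well on plate-bound CD3 antibody (1 ug/ml), with 1 ug/ml CD28 antibody, 1 uM NECA and antagonist at 0.003-10 μM final. After 24 h at 37° C, supernatant IL-2 was measured by MSD immunoassay.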

The subject of assay [2] is CD8+ T cells in human whole blood. As to the kind of experiment: Measurement of pCREB in CD8+ T cells in human whole blood. The assay is classed as cell-based. Conditions: T-cell, 1 h; heparinised human whole blood, rolipram, 3 μM NECA, 60 min, phospho-CREB in CD8+ T cells by FACS. A digest of the protocol: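 Heparinised human whole blood preincubated 20 min at 37 °C with serially diluted A2a antagonists plus rolipram, then stimulated 60 min with 3 μM NECA (final). After fixation and RBC lysis, permeabilized leukocytes stained for phospho-CREB and CD8; pCREB in CD8+ T cells read by flow cytometry.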

Assay [3] addresses T1, human Adenosine A3 receptor (Homo sapiens, UniProt P0DMS8).
T1 sequence (P0DMS8 1-318): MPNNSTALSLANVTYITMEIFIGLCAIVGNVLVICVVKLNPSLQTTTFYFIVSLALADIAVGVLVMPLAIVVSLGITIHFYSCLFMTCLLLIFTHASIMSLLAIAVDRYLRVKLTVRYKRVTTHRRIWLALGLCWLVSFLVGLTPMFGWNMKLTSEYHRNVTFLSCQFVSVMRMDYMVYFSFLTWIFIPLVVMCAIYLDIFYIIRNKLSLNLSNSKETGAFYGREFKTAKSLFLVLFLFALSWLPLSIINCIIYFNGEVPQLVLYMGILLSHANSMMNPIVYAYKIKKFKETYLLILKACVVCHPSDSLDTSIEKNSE
Briefly: Adenosine receptor TR-FRET binding assay (CA200645 displacement), A3.

The target in assay [4] is T2, human Adenosine A2b receptor (Homo sapiens, UniProt P29275).
T2 construct: expressed in transfected cells; host or cells: CHO cell membranes
T2 sequence (P29275 1-332): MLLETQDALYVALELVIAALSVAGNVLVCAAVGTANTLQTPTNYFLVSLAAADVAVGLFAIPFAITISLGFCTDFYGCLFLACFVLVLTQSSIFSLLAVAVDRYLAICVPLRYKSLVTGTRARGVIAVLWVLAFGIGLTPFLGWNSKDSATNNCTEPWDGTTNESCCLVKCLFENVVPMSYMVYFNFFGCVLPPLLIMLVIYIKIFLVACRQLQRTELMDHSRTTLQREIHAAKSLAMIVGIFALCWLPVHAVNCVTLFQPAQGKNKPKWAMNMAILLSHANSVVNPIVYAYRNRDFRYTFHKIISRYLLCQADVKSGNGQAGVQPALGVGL
As to the kind of experiment: Adenosine receptor TR-FRET binding assay (CA200645 displacement), A2b. Conditions: 30 nM CA200645, CHO cell membranes, 2 hours at room temperature.

Assay [5] concerns the target T3, human Adenosine A2a receptor (Homo sapiens, UniProt P29274).
T3 construct: expressed in transfected cells; host or cells: CHO cell membranes
As to the kind of experiment: Adenosine receptor TR-FRET binding assay (CA200645 displacement), A2a. Conditions: 100 nM CA200645, CHO cell membranes, 2 hours at room temperature.

The target in assay [6] is T4, human Adenosine A1 receptor (Homo sapiens, UniProt P30542).
T4 sequence (P30542 1-326): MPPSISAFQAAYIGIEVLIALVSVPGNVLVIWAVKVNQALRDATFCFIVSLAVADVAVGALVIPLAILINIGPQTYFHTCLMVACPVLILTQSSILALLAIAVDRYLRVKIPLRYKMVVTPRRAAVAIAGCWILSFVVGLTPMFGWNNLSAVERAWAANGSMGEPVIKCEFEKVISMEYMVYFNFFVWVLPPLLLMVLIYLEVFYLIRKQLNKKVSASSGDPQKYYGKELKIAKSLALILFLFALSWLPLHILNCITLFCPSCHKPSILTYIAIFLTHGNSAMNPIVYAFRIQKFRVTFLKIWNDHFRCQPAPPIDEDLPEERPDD
Briefly: Adenosine receptor TR-FRET binding assay (CA200645 displacement), A1.

A value given as a limit tells only on which side of the number the result lay.

T3 sequence (P29274 whole entry): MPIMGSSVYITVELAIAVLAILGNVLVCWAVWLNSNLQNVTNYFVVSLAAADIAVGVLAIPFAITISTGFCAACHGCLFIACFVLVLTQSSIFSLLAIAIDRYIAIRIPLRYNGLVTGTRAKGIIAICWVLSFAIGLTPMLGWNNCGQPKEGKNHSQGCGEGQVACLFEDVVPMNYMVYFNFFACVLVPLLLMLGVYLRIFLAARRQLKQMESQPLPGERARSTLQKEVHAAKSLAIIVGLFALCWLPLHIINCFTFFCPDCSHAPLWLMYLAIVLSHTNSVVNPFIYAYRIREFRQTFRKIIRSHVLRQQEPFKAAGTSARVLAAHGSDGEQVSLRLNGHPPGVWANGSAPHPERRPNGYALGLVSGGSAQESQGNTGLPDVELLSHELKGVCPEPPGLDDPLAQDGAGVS

Take `Cc1cc(-c2c(-c3cccc(C#N)c3)nn3ccc(C(=O)NC(C)(C)CO)nc23)cc(Cl)n1` [Example 6.22, 3-(2-Chloro-6-methyl-4-pyridyl)-2-(3-cyanophenyl)-N-(2-hydroxy-1,1-dimethyl-ethyl)pyrazolo[1,5-a]pyrimidine-5-carboxamide]: the IC50 amounted to 2.5 nM in assay [1] and 100 nM in assay [2]. For the same compound, the Ki in assay [3] is 1910 nM; in assay [4] it was 5 nM; in assay [5], 0.1 nM; in assay [6], 61 nM.

Consider `Cc1cc(-c2c(-c3cccc(C#N)c3)nn3ccc(C(=O)NC(C)(C)C(C)(C)O)nc23)cc(Cl)n1` [Example 6.23, 3-(2-Chloro-6-methyl-4-pyridyl)-2-(3-cyanophenyl)-N-(2-hydroxy-1,1,2-trimethyl-propyl)pyrazolo[1,5-a]pyrimidine-5-carboxamide], for which the IC50 in assay [1] was determined as 5.7 nM; in assay [2] it was 330 nM. For the same compound, the Ki is more than 1000 nM in assay [3], 74 nM in assay [4], 0.4 nM in assay [5] and 223 nM in assay [6].

Regarding `Cc1cc(-c2c(-c3cccc(C#N)c3)nn3ccc(C(=O)NCCC(C)(C)N)nc23)cc(Cl)n1` [Example 7, N-(3-Amino-3-methyl-butyl)-3-(2-chloro-6-methyl-4-pyridyl)-2-(3-cyanophenyl)pyrazolo[1,5-a]pyrimidine-5-carboxamide], the half-maximal inhibitory concentration (IC50) in assay [1] worked out at 34 nM; in assay [2], 280 nM. Further, the inhibition constant Ki in assay [3] is more than 1000 nM; in assay [4], 5 nM; in assay [5], 0.4 nM; in assay [6] it was 143 nM.

As for `Cc1cc(-c2c(-c3cccc(C#N)c3)nn3ccc(C(=O)N[C@H]4CNC[C@H]4O)nc23)cc(Cl)n1` [Example 7.2, 3-(2-Chloro-6-methyl-4-pyridyl)-2-(3-cyanophenyl)-N-[cis-(3S,4R)-4-hydroxypyrrolidin-3-yl]pyrazolo[1,5-a]pyrimidine-5-carboxamide], the IC50 was found to be 70 nM in assay [1] and 1070 nM in assay [2]. Further, the Ki in assay [3] was more than 1000 nM; in assay [4] it was 3 nM; in assay [5] it was 2.6 nM; in assay [6], 458 nM.

In the case of `Cc1cc(-c2c(-c3cccc(C#N)c3)nn3ccc(C(=O)NC(C)(C)CN)nc23)cc(Cl)n1` [Example 7.3, N-(2-Amino-1,1-dimethyl-ethyl)-3-(2-chloro-6-methyl-4-pyridyl)-2-(3-cyanophenyl)pyrazolo[1,5-a]pyrimidine-5-carboxamide], the IC50 in assay [1] came out at 172 nM; in assay [2], 1800 nM. The inhibition constant (Ki) in assay [3] is more than 1000 nM; in assay [4] it was 15 nM; in assay [5] it was 2.9 nM; in assay [6], 44 nM.

Turning to `Cc1cc(-c2c(-c3cccc(C#N)c3)nn3ccc(C(=O)N[C@H](C)[C@H](O)CO)nc23)cc(Cl)n1` [Example 7.9, 3-(2-Chloro-6-methyl-4-pyridyl)-2-(3-cyanophenyl)-N-[(1 R,2S)-2,3-dihydroxy-1-methyl-propyl]pyrazolo[1,5-a]pyrimidine-5-carboxamide], the 50% inhibitory concentration (IC50) was found to be 4 nM in assay [1] and 70 nM in assay [2]. The Ki in assay [3] was more than 1000 nM; in assay [4], 2 nM; in assay [5], 0.6 nM; in assay [6], 160 nM.

For `Cc1cc(-c2c(-c3cccc(C#N)c3)nn3ccc(C(=O)N[C@H]4CC[C@H](N)C4)nc23)cc(Cl)n1` [Example 7.14, 3-(2-Chloro-6-methyl-4-pyridyl)-2-(3-cyanophenyl)-N-[(1S,3S)-3-aminocyclopentyl]pyrazolo[1,5-a]pyrimidine-5-carboxamide], the concentration for half-maximal inhibition (IC50) in assay [1] is 142 nM; in assay [2] it was 1930 nM. Besides, the Ki is more than 1000 nM in assay [3], 32 nM in assay [4], 2.8 nM in assay [5] and 249 nM in assay [6].

As to `Cc1cc(-c2c(-c3cccc(C#N)c3)nn3ccc(C(=O)NCC4(C)CCCNC4)nc23)cc(Cl)n1` (stereo not drawn) [Example 7.18, 3-(2-Chloro-6-methyl-4-pyridyl)-2-(3-cyanophenyl)-N-[(3-methyl-3-piperidyl)methyl]pyrazolo[1,5-a]pyrimidine-5-carboxamide], the IC50 in assay [1] turned out to be 19 nM; in assay [2], 470 nM. Further, the inhibition constant (Ki) was more than 1000 nM in assay [3], 14 nM in assay [4], 1 nM in assay [5] and 20 nM in assay [6].

With `Cc1cc(-c2c(-c3cccc(C#N)c3)nn3ccc(C(=O)N[C@@H](C)[C@H](O)CO)nc23)cc(Cl)n1` [Example 7.19, 3-(2-Chloro-6-methyl-4-pyridyl)-2-(3-cyanophenyl)-N-[(1S,2S)-2,3-dihydroxy-1-methyl-propyl]pyrazolo[1,5-a]pyrimidine-5-carboxamide], the IC50 in assay [1] is 4 nM; in assay [2], 100 nM. Besides, the Ki in assay [3] turned out to be 1410 nM; in assay [4], 4 nM; in assay [5], 0.1 nM; in assay [6], 20 nM.

With `Cc1cc(-c2c(-c3cccc(C#N)c3)nn3ccc(C(=O)NCC(C)(C)O)nc23)cc(C)n1` [Example 10, 2-(3-Cyanophenyl)-3-(2,6-dimethyl-4-pyridyl)-N-(2-hydroxy-2-methyl-propyl)pyrazolo[1,5-a]pyrimidine-5-carboxamide], the half-inhibitory concentration (IC50) in assay [1] is 6 nM; in assay [2] it was 80 nM. Moreover, the Ki is more than 1000 nM in assay [3], 19 nM in assay [4], 0.4 nM in assay [5] and 236 nM in assay [6].

On to `Cc1cc(-c2c(-c3cccc(C#N)c3)nn3ccc(C(=O)NCC(C)(C)O)nc23)ccn1` [Example 12.2, 2-(3-Cyanophenyl)-N-(2-hydroxy-2-methyl-propyl)-3-(2-methyl-4-pyridyl)pyrazolo[1,5-a]pyrimidine-5-carboxamide], for which the IC50 in assay [1] amounted to 22 nM; in assay [2] it was 520 nM. Moreover, the Ki in assay [3] was determined as 56 nM; in assay [4], 21 nM; in assay [5], 2.9 nM; in assay [6] it was 5 nM.

Consider `Cc1cc(-c2c(-c3cccc(C#N)c3)nn3ccc(C(=O)NCC(C)(C)O)nc23)cc(C(F)F)n1` [Example 12.4, 2-(3-Cyanophenyl)-3-[2-(difluoromethyl)-6-methyl-4-pyridyl]-N-(2-hydroxy-2-methyl-propyl)pyrazolo[1,5-a]pyrimidine-5-carboxamide], for which the IC50 in assay [1] came out at 4 nM; in assay [2], 150 nM. The inhibition constant (Ki) came out at 1550 nM in assay [3], 12 nM in assay [4], 0.1 nM in assay [5] and 148 nM in assay [6].

In the case of `COc1cc(-c2c(-c3cccc(C#N)c3)nn3ccc(C(=O)NCC(C)(C)O)nc23)cc(C)n1` [Example 12.6, 2-(3-Cyanophenyl)-N-(2-hydroxy-2-methyl-propyl)-3-(2-methoxy-6-methyl-4-pyridyl)pyrazolo[1,5-a]pyrimidine-5-carboxamide], the half-maximal inhibitory concentration (IC50) is 9 nM in assay [1] and 370 nM in assay [2]. Also, the Ki in assay [3] was 690 nM; in assay [4], 75 nM; in assay [5], 1 nM; in assay [6], 251 nM.

As for `Cc1cc(-c2c(-c3cccc(C#N)c3)nn3ccc(C(=O)NCC(C)(C)O)nc23)cc(C#N)n1` [Example 12.8, 3-(2-Cyano-6-methyl-4-pyridyl)-2-(3-cyanophenyl)-N-(2-hydroxy-2-methyl-propyl)pyrazolo[1,5-a]pyrimidine-5-carboxamide], the IC50 in assay [1] is 35 nM; in assay [2], 350 nM. Further, the inhibition constant Ki was more than 1000 nM in assay [3], 177 nM in assay [4], 3.4 nM in assay [5] and 575 nM in assay [6].
